In the supplement of paper PMC10307832:

What was measured:
Test in all cases: relative viability (nuclei count vs DMSO), 5 days (fraction); higher = more cells survive
MK-8033 + Olaparib = compound: Cn1cc(-c2cnc3ccc4ccc(CS(=O)(=O)NCc5ccccn5)cc4c(=O)c3c2)cn1 [MK-8033] + O=C(c1cc(Cc2n[nH]c(=O)c3ccccc23)ccc1F)N1CCN(C(=O)C2CC2)CC1 [Olaparib] (partner 8 µM)
In short: (§1)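 Cells from lung cancer lines were seeded into 1536-well plates and, one day later, dosed by pin tool. Treatments were either a single drug or a fixed dose of an anchor drug with five library-drug doses (not always all listed) in √10 steps. After 5 days, nuclei were stained in a one-step fixation (final 0.05% Triton X-100, 1% formaldehyde, 1 ug/ml Hoechst) and counted on 4× images, and relative viability is the treated-to-vehicle nuclei ratio, as the median of duplicate plates.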

RU-SKI 43 + Pemetrexed = compound: CC[C@@H](C)CNCC(=O)N1CCC2=C([C@@H]1COC3=CC=CC(=C3)C)C=CS2 [RU-SKI 43] + Nc1nc2[nH]cc(CCc3ccc(C(=O)N[C@@H](CCC(=O)O)C(=O)O)cc3)c2c(=O)[nH]1 [Pemetrexed] (partner 0.2 µM)
In short: as §1

RU-SKI 43 + Vorinostat = compound: CC[C@@H](C)CNCC(=O)N1CCC2=C([C@@H]1COC3=CC=CC(=C3)C)C=CS2 [RU-SKI 43] + O=C(CCCCCCC(=O)Nc1ccccc1)NO [Vorinostat] (partner 1 µM)
In short: as §1

MK-8033 + Tozasertib = compound: Cn1cc(-c2cnc3ccc4ccc(CS(=O)(=O)NCc5ccccn5)cc4c(=O)c3c2)cn1 [MK-8033] + Cc1cc(Nc2cc(N3CCN(C)CC3)nc(Sc3ccc(NC(=O)C4CC4)cc3)n2)n[nH]1 [Tozasertib] (partner 0.1 µM)
In short: as §1

Cell Line	relative viability (MK-8033 + Olaparib; first compound 0.02 µM)	relative viability (MK-8033 + Olaparib; first compound 0.06325 µM)	relative viability (MK-8033 + Olaparib; first compound 0.2 µM)	relative viability (MK-8033 + Olaparib; first compound 0.6325 µM)	relative viability (MK-8033 + Olaparib; first compound 2 µM)	relative viability (RU-SKI 43 + Pemetrexed; first compound 0.1 µM)	relative viability (RU-SKI 43 + Pemetrexed; first compound 0.3162 µM)	relative viability (RU-SKI 43 + Pemetrexed; first compound 1 µM)	relative viability (RU-SKI 43 + Pemetrexed; first compound 3.162 µM)	relative viability (RU-SKI 43 + Pemetrexed; first compound 10 µM)	relative viability (RU-SKI 43 + Vorinostat; first compound 0.1 µM)	relative viability (RU-SKI 43 + Vorinostat; first compound 0.3162 µM)	relative viability (RU-SKI 43 + Vorinostat; first compound 1 µM)	relative viability (RU-SKI 43 + Vorinostat; first compound 3.162 µM)	relative viability (RU-SKI 43 + Vorinostat; first compound 10 µM)	relative viability (MK-8033 + Tozasertib; first compound 0.02 µM)	relative viability (MK-8033 + Tozasertib; first compound 0.06325 µM)	relative viability (MK-8033 + Tozasertib; first compound 0.2 µM)	relative viability (MK-8033 + Tozasertib; first compound 0.6325 µM)	relative viability (MK-8033 + Tozasertib; first compound 2 µM)
NCI-H1651	0.202	0.175	0.181	0.178	0.16	0.556	0.701	0.744	0.557	0.59	0.617	0.573	0.676	0.559	0.548	0.746	0.667	0.734	0.524	0.557
NCI-H1355	0.759	0.759	0.632	0.756	0.696	1.02	1.09	1.09	1.14	1.05	0.725	0.704	0.645	0.701	0.615	0.572	0.524	0.513	0.526	0.398
NCI-H1563						0.772	0.785	0.84	0.725	0.733										
NCI-H1650	0.808	0.646	0.688	0.797	0.713	0.344	0.37	0.439	0.377	0.322	0.55	0.674	0.523	0.583	0.589	0.395	0.325	0.395	0.352	0.276
HCC-78	0.717	0.82	0.739	0.505	0.775	0.916	0.925	0.933	0.92	0.923	0.531	0.378	0.469	0.475	0.439	0.482		0.414	1.83	0.404
NCI-H1437	0.632	0.619	0.596	0.633	0.598	0.318	0.352	0.328	0.306	0.295	0.839	0.958	0.84	0.798	0.671	0.408	0.424	0.401	0.395	0.372
BEN	1.13	1.01	0.986	0.985	1.01	0.941	0.682	0.997	0.665	0.825	0.621	0.531	0.665	0.639	0.546	0.544	0.491	0.461	0.492	0.545
LCLC-103H	0.731	0.778	0.737	0.729	0.815	0.469	0.464	0.482	0.492	0.5	0.804	0.821	0.855	0.781	0.729	0.489	0.556	0.438	0.55	0.461
NCI-H1915	0.243	0.241	0.267	0.252	0.259	0.483	0.693	0.602	0.515	0.443	0.563	0.602	0.639	0.54	0.549	0.435	0.424	0.391	0.439	0.362
NCI-H2085	0.771	0.788	0.766	0.794	0.73	1.02	0.899	0.894	0.85	0.845	0.705	0.659	0.808	0.793	0.726	0.812	0.708	0.73	0.841	0.593
NCI-H23	0.295	0.307	0.221		0.332	0.787	0.687	0.834	0.715	0.705	0.473	0.602	0.571	0.587	0.48	0.362	0.399	0.253	0.415	0.429
EPLC-272H	0.817	0.716	0.792	0.614	0.689	0.349	0.405	0.243	0.317	0.238	0.467	0.384	0.426	0.401	0.31	0.27	0.214	0.279	0.32	0.152
EBC-1	0.659	0.565	0.792	0.648	0.568															
SK-MES-1	0.682	0.658	0.677	0.76	0.717	0.962	1.13	1.12	0.964	0.916	1.15	1.45	1.28	1.21	1.1	0.902	0.825	0.872	0.886	0.822
A549	0.34	0.275	0.267	0.305	0.336															
NCI-H2126	0.978	0.921	0.806	0.903	0.875	0.724	0.745	0.682	0.739	0.709	0.793	0.864	0.819	0.906	0.781	0.773	0.749	0.772	0.841	0.79
NCI-H2087	0.593	0.57	0.535	0.492	0.622	0.684	0.762	0.714	0.694	0.692	0.818	1.02	0.985	0.789	0.57	0.241	0.266	0.237	0.246	0.247
EMC-BAC-2	0.501	0.477	0.473	0.49	0.479	0.441	0.401	0.455	0.428	0.443	0.526	0.362	0.79	0.375	0.521	0.295	0.254	0.281	0.265	0.298
